For the experiment, the system named is Plasmodium berghei. Kind of experiment: Luciferase/luciferin-expressing antifolate-resistant parasites were used to infect a culture of HepG2 cells that were pre-incubated with compounds. Infected hepatocytes emit light due to the luciferase reaction. Assay results are presented as the percent inhibition of light emission compared to control. […]. Type of experiment: functional. As to conditions: sporozoite; for IC90: read-out: LUCIFERASE INFECTION ASSAY - IC90.

The mark [1] stands for this setting: read-out: LUCIFERASE INFECTION ASSAY - IC50.

pIC50: −log10 of the molar value.

Regarding `Cn1nc(-c2ccc(Cl)cc2)cc1N`, the concentration for an effect of 90% (IC90) is above 15.9 µM. For the setting “FFLUC_HILL_SLOPE 24.2, FFLUC_R_SQUARED 0.094, read-out: LUCIFERASE INFECTION ASSAY - IC50”, the pIC50 is below 4.80.
Regarding `CCNc1nnc(SCc2nc(-c3cccs3)no2)s1`, the IC90 is above 10 µM. Besides, the negative logarithm of the IC50 (pIC50) under setting [1] is below 5.00.
For `C=S(=O)(NC(=O)CSc1ccc(Cl)cc1)c1ccc(C)cc1` (centres undefined) the same measures were above 9.32 µM and below 5.03.
Consider `CCCCNC(=O)c1c(NC(=O)c2ccc(C(=O)OC)cc2)nc2ccccn12`, for which the IC90 was above 8.37 µM. For the same compound, the pIC50 (PBLUC_HILL_SLOPE 12.3, PBLUC_R_SQUARED 0.245, read-out: LUCIFERASE INFECTION ASSAY - IC50) was 5.11.
For `CC(C)n1c(Sc2ncc([N+](=O)[O-])s2)nc2cc(Cl)ccc21`, the IC90 stood at 8.83 µM. Also, the negative-log IC50 (pIC50) (FFLUC_HILL_SLOPE 44.5, FFLUC_R_SQUARED 0.755, HEPG2TOX_HILL_SLOPE 8.37, HEPG2TOX_R_SQUARED 0.175, PBLUC_HILL_SLOPE 4.42, PBLUC_R_SQUARED 0.266, read-out: LUCIFERASE INFECTION ASSAY - IC50) is 5.27.
In the case of `Cc1cc(C)cc(C(O)c2nc(-c3cccc4ccccc34)c[nH]2)c1` (centres undefined), the IC90 was above 10 µM. For the same compound, where the note is “PBLUC_HILL_SLOPE 13.8, PBLUC_R_SQUARED 0.489, read-out: LUCIFERASE INFECTION ASSAY - IC50”, the negative-log IC50 (pIC50) is 5.02.
As to `Cc1cc(/C=C(\C#N)c2nc3ccccc3n2C)c(C)n1-c1ccc(Cl)c(C(F)(F)F)c1`, the concentration for an effect of 90% (IC90) was above 10 µM. Further, the negative logarithm of the IC50 (pIC50) under setting [1] was below 5.00.
For `CN(CC(=O)Nc1ccc(N2CCOCC2)cc1)Cn1nc(-c2cccs2)n(CC2CCCO2)c1=S` (centres undefined) the same measures were above 10 µM and below 5.00.
On to `FC(F)(F)c1cccc(CNc2ncnc3sccc23)c1`, for which the IC90 turned out to be 6.39 µM. For the same compound, the pIC50 (HEPG2TOX_HILL_SLOPE 0.888, 1.51, HEPG2TOX_R_SQUARED 0.921, 0.862, PBLUC_HILL_SLOPE 1.26, 1.66, PBLUC_R_SQUARED 0.564, 0.617, read-out: LUCIFERASE INFECTION ASSAY - IC50) is 5.85.
With `O=C(Nc1nc(-c2cccs2)c(C(=O)C(F)(F)F)s1)c1ccc(S(=O)(=O)N2CCCCC2)cc1`, the IC90 is above 10 µM. For the same compound, the negative-log IC50 (pIC50) under setting [1] is 5.04.
Turning to `CN(CC(=O)Nc1ccc(Cl)c(Cl)c1)C(=O)C12CC3CC(CC(C3)C1)C2`, the IC90 was above 10 µM. Besides, the pIC50 under setting [1] was below 5.00.
As for `COc1ccc(-c2cc(-c3ccc(O)cc3)cnc2N)cn1`, the 90% effect concentration (IC90) was 10.6 µM. Further, the pIC50 (PBLUC_HILL_SLOPE 26.5, PBLUC_R_SQUARED 0.457, read-out: LUCIFERASE INFECTION ASSAY - IC50) is 5.01.
Turning to `CC(C)C(CNc1nc(-c2ccsc2)nc2ccccc12)N1CCN(C)CC1` (centres undefined), the IC90 is above 10 µM. Further, the pIC50 (HEPG2TOX_HILL_SLOPE 10.4, HEPG2TOX_R_SQUARED 0.591, PBLUC_HILL_SLOPE 1.6, PBLUC_R_SQUARED 0.533, read-out: LUCIFERASE INFECTION ASSAY - IC50) was 5.55.
In the case of `CNc1nc(CSc2ccc(Cl)cc2)nc2sc3c(c12)CCC3`, the IC90 was above 10 µM. Besides, under setting [1], the pIC50 was below 5.00.
As to `C=CCn1c(C)cc(C(=O)CSc2nc3ccccc3o2)c1C`, the 90% effect concentration (IC90) amounted to 0.129 µM. The pIC50 (HEPG2TOX_HILL_SLOPE 2.02, HEPG2TOX_R_SQUARED 0.572, PBLUC_HILL_SLOPE 43.7, PBLUC_R_SQUARED 0.493, read-out: LUCIFERASE INFECTION ASSAY - IC50) was 6.91.
In the case of `O=C(/C=C/c1cccs1)N1CCN(S(=O)(=O)c2ccc(Cl)c(C(F)(F)F)c2)CC1`, the IC90 was above 10 µM. For the same compound, the pIC50 (PBLUC_HILL_SLOPE 2.7, PBLUC_R_SQUARED 0.367, read-out: LUCIFERASE INFECTION ASSAY - IC50) is 5.26.
For `O=C(Nc1nc2ccccc2[nH]1)c1ccc(S(=O)(=O)N2CCc3ccccc3C2)cc1`, the IC90 is above 10 µM. The negative-log IC50 (pIC50) (FFLUC_HILL_SLOPE 9.27, FFLUC_R_SQUARED 0.301, PBLUC_HILL_SLOPE 0.89, PBLUC_R_SQUARED 0.688, read-out: LUCIFERASE INFECTION ASSAY - IC50) is 5.32.
On to `O=C(NCCC1=CCCCC1)c1cccc(N2CCCC2=O)c1`, for which the concentration for an effect of 90% (IC90) is above 10 µM. Also, for the setting “FFLUC_HILL_SLOPE 0.738, FFLUC_R_SQUARED 0.473, PBLUC_HILL_SLOPE 0.427, PBLUC_R_SQUARED 0.183, read-out: LUCIFERASE INFECTION ASSAY - IC50”, the negative logarithm of the IC50 (pIC50) was below 5.00.
`CCOC(=O)c1c(S(=O)(=O)Nc2ccc(Cl)cc2)c(-c2ccccc2)n(-c2ccccc2)c1C`: the 90% effect concentration (IC90) was above 6.67 µM. The pIC50 under setting [1] was 5.32.
Turning to `O=C(OCC(=O)N1CCN(C(=O)c2ccco2)CC1)c1cccc(NS(=O)(=O)c2ccc(F)c(F)c2)c1`, the IC90 is above 10 µM. Further, the negative-log IC50 (pIC50) under setting [1] was below 5.00.
As for `Cc1ccc(C2NC(=S)NC3=C2C(=O)c2ccccc23)cc1` (centres undefined), the 90% effect concentration (IC90) was above 10.8 µM. Further, under setting [1], the negative logarithm of the IC50 (pIC50) is below 4.97.
Consider `O=C(Nc1ccc(SC(F)(F)F)cc1)Nc1ccc(SC(F)(F)F)cc1`, for which the IC90 was determined as 0.867 µM. Also, the negative-log IC50 (pIC50) (HEPG2TOX_HILL_SLOPE 1.44, HEPG2TOX_R_SQUARED 0.886, PBLUC_HILL_SLOPE 1.62, PBLUC_R_SQUARED 0.668, read-out: LUCIFERASE INFECTION ASSAY - IC50) was 6.65.
On to `CC1N(C)c2ccc(/C=C/c3nc4ccccc4s3)cc2C1(C)C` (centres undefined), for which the 90% effect concentration (IC90) stood at 4.73 µM. Further, the negative-log IC50 (pIC50) (HEPG2TOX_HILL_SLOPE 3.14, HEPG2TOX_R_SQUARED 0.947, PBLUC_HILL_SLOPE 1.36, 1.57, PBLUC_R_SQUARED 0.638, 0.693, read-out: LUCIFERASE INFECTION ASSAY - IC50) was 5.99.
Turning to `Cc1ccc(O)c(C(=O)NCCc2ccc3c(c2)OCCO3)c1`, the 90% effect concentration (IC90) is 7.45 µM. For the same compound, where the note is “HEPG2TOX_HILL_SLOPE 15.5, HEPG2TOX_R_SQUARED 0.566, PBLUC_HILL_SLOPE 1.92, PBLUC_R_SQUARED 0.779, read-out: LUCIFERASE INFECTION ASSAY - IC50”, the pIC50 is 5.63.
Take `CCCNC(=O)c1c(NC(=O)c2cccc(C#N)c2)nc2ccc(C)cn12`: the IC90 is above 9.13 µM. The pIC50 (HEPG2TOX_HILL_SLOPE 3.59, HEPG2TOX_R_SQUARED 0.259, PBLUC_HILL_SLOPE 11, PBLUC_R_SQUARED 0.773, read-out: LUCIFERASE INFECTION ASSAY - IC50) was 5.07.
For the compound `C=CCn1c(Sc2nc(C)nc3sc4c(c23)CCC4)nnc1-c1ccco1`, the IC90 was above 10 µM. In addition, where the note is “FFLUC_HILL_SLOPE 38.3, FFLUC_R_SQUARED 0.259, read-out: LUCIFERASE INFECTION ASSAY - IC50”, the pIC50 is below 5.00.
In the case of `CN(CC(=O)Nc1cccc(F)c1)C(=O)c1csc(COc2ccc(Cl)cc2)n1`, the IC90 stood at 6.38 µM. Further, for the setting “HEPG2TOX_HILL_SLOPE 11.6, HEPG2TOX_R_SQUARED 0.266, PBLUC_HILL_SLOPE 151, PBLUC_R_SQUARED 0.192, read-out: LUCIFERASE INFECTION ASSAY - IC50”, the negative logarithm of the IC50 (pIC50) was 5.20.
Regarding `O=C(Nc1cccc(C2NCC(c3ccccc3Cl)c3c2[nH]c2ccccc32)c1)c1ccc(Cl)cc1` (centres undefined), the 90% effect concentration (IC90) is above 10 µM. For the same compound, the negative-log IC50 (pIC50) (FFLUC_HILL_SLOPE 18, FFLUC_R_SQUARED 0.972, PBLUC_HILL_SLOPE 3.03, PBLUC_R_SQUARED 0.515, read-out: LUCIFERASE INFECTION ASSAY - IC50) is 5.13.
In the case of `C=CCN(c1ccccc1)S(=O)(=O)c1cc(C(=O)NCC2(N3CCCCC3)CCCCC2)ccc1Cl`, the IC90 is above 10 µM. Besides, the negative logarithm of the IC50 (pIC50) (HEPG2TOX_HILL_SLOPE 0.94, HEPG2TOX_R_SQUARED 0.4, PBLUC_HILL_SLOPE 1.67, PBLUC_R_SQUARED 0.0797, read-out: LUCIFERASE INFECTION ASSAY - IC50) is 5.28.
Turning to `COc1cc(NC(=O)c2csc(C(O)c3cccc(C(F)(F)F)c3)n2)cc(OC)c1OC` (centres undefined), the IC90 is above 10 µM. Under setting [1], the negative logarithm of the IC50 (pIC50) was below 5.00.
On to `CN1/C(=C\C(=O)CSc2nnc3c(n2)[nH]c2ccccc23)C(C)(C)c2ccccc21`, for which the IC90 is above 10 µM. For the same compound, under “HEPG2TOX_HILL_SLOPE 7.55, HEPG2TOX_R_SQUARED 0.316, read-out: LUCIFERASE INFECTION ASSAY - IC50”, the negative-log IC50 (pIC50) was below 5.00.
On to `Cc1ccc(C(=O)/C=C/c2cn(C)c(=O)n(C)c2=O)c(C)c1`, for which the 90% effect concentration (IC90) is above 10 µM. In addition, the pIC50 (PBLUC_HILL_SLOPE 10.4, PBLUC_R_SQUARED 0.461, read-out: LUCIFERASE INFECTION ASSAY - IC50) is 5.06.
As to `N#C/C(=C(\Oc1ccccc1)C(F)(F)F)c1ccccc1`, the concentration for an effect of 90% (IC90) came to 10.9 µM. In addition, where the note is “HEPG2TOX_HILL_SLOPE 4.45, HEPG2TOX_R_SQUARED 0.985, PBLUC_HILL_SLOPE 11.8, PBLUC_R_SQUARED 0.682, read-out: LUCIFERASE INFECTION ASSAY - IC50”, the pIC50 is 5.04.
With `COC(=O)c1ccc(O)c(CSc2ccc(Cl)cc2)c1`, the concentration for an effect of 90% (IC90) was above 10.7 µM. Under “FFLUC_HILL_SLOPE 15.4, FFLUC_R_SQUARED 0.267, PBLUC_HILL_SLOPE 7.94, PBLUC_R_SQUARED 0.227, read-out: LUCIFERASE INFECTION ASSAY - IC50”, the pIC50 was 5.07.
Take `NC(=O)c1ccsc1NC(=O)c1cc(-c2ccccc2)nn1-c1ccccc1`: the IC90 came to 3.68 µM. Moreover, the negative-log IC50 (pIC50) (PBLUC_HILL_SLOPE 12.3, PBLUC_R_SQUARED 0.697, read-out: LUCIFERASE INFECTION ASSAY - IC50) was 5.51.
On to `Cc1onc(-c2c(Cl)cccc2Cl)c1C(=O)N1CCCc2ccccc21`, for which the IC90 is above 8.52 µM. For the setting “HEPG2TOX_HILL_SLOPE 0.734, HEPG2TOX_R_SQUARED 0.611, PBLUC_HILL_SLOPE 1.71, PBLUC_R_SQUARED 0.613, read-out: LUCIFERASE INFECTION ASSAY - IC50”, the pIC50 is 5.44.
As for `COc1ccc(-c2nn(-c3ccccc3)cc2CN(Cc2ccccc2)C(=O)c2ccco2)cc1`, the IC90 was above 10 µM. Besides, under setting [1], the negative logarithm of the IC50 (pIC50) was below 5.00.

For the origin of these results see ChEMBL document CHEMBL4483862, “Open-source discovery of chemical leads for next-generation chemoprotective antimalarials” (2018).
